Activity data for 20 molecules are collected here from EP1057825A1, “ISOFLAVANE DERIVATIVES AND IMMUNOPOTENTIATING COMPOSITIONS CONTAINING THE SAME” (SHIONOGI & CO., LTD., priority 1998, dated 1999).

The test system of the test is mouse bone marrow cells. Briefly: Metabolism promoting action on mouse bone marrow cells (mitochondrial metabolism activity, MTT reduction method). The settings on record: Mus musculus, Bone marrow cell, 120 h, 5 days, magnitude of metabolism, no test compound = one; for activity at 0.39 µg/mL: Test compound concentration 0.39 µg/ml; for activity at 0.78 µg/mL: Test compound concentration 0.78 µg/ml; for activity at 1.56 µg/mL: Test compound concentration 1.56 µg/ml; for activity at 3.13 µg/mL: Test compound concentration 3.13 µg/ml; for activity at 6.25 µg/mL: Test compound concentration 6.25 µg/ml; for activity at 12.5 µg/mL: Test compound concentration 12.5 µg/ml. The test is classed as cell-based, BALB/c mouse. From the text:
The presence of an immunoactivating action can be determined if the magnitude of metabolism exceeds one, where the cellular metabolism of cells not having test compounds added thereto is defined as one.

For `CCCCCCOc1cc2c(c(OC)c1CCC(C)C)CC(c1ccc(O)c(CCC(C)C)c1OCCCCCC)CO2` (stereo not drawn) [A-14], the activity at 0.39 µg/mL is 134%, the activity at 0.78 µg/mL was determined as 149%, the activity at 1.56 µg/mL turned out to be 166% and the activity at 3.13 µg/mL was 184%. The activity at 6.25 µg/mL amounted to 199% and the activity at 12.5 µg/mL was found to be 209%.
Turning to `CCCCCCCCCOc1ccc(C2COc3cc(O)c(CCC(C)C)c(OC)c3C2)c(OCCCCCCCCC)c1CCC(C)C` (stereo not drawn) [A-17], the activity at 0.39 µg/mL was 116%, the activity at 0.78 µg/mL amounted to 117%, the activity at 1.56 µg/mL turned out to be 126% and the activity at 3.13 µg/mL came out at 164%. Further, the activity at 6.25 µg/mL came to 177% and the activity at 12.5 µg/mL is 156%.
With `CCCCCCCCCOc1cc2c(c(OC)c1CCC(C)C)CC(c1ccc(O)c(CCC(C)C)c1OCCCCCCCCC)CO2` (stereo not drawn) [A-18], the activity at 0.39 µg/mL was 103%, the activity at 0.78 µg/mL came to 102%, the activity at 1.56 µg/mL was 109% and the activity at 3.13 µg/mL was 115%. Further, the activity at 6.25 µg/mL was determined as 119% and the activity at 12.5 µg/mL amounted to 114%.
Regarding `COc1c2c(cc(OC(C)C)c1CCC(C)C)OCC(c1ccc(O)c(CCC(C)C)c1O)C2` (stereo not drawn) [A-19], the activity at 1.56 µg/mL is 120%, the activity at 3.13 µg/mL was determined as 128%, the activity at 6.25 µg/mL came to 126% and the activity at 12.5 µg/mL came to 53%.
Take `COc1c(CCC(C)C)c(O)cc2c1CC(c1ccc(OC(C)C)c(CCC(C)C)c1OC(C)C)CO2` (stereo not drawn) [A-20]: the activity at 1.56 µg/mL was 135%, the activity at 3.13 µg/mL turned out to be 134%, the activity at 6.25 µg/mL turned out to be 116% and the activity at 12.5 µg/mL is 94%.
The like results for `COc1c2c(cc(OC(C)C)c1CCC(C)C)OCC(c1ccc(O)c(CCC(C)C)c1OC(C)C)C2` (stereo not drawn) [A-21] were, in that order, 131%, 122%, 89% and 44%.
For `COc1c(CCC(C)C)c(O)cc2c1CC(c1ccc(O)c(CCC(C)C)c1OC(C)C)CO2` (stereo not drawn) [A-22], the activity at 1.56 µg/mL was 186%, the activity at 3.13 µg/mL is 176%, the activity at 6.25 µg/mL worked out at 40% and the activity at 12.5 µg/mL stood at 50%.
Turning to `COc1cc(OC)c2c(c1)OCC(c1ccc(OCc3ccccc3)cc1OCc1ccccc1)C2` (stereo not drawn) [B-1], the activity at 0.39 µg/mL worked out at 114%, the activity at 0.78 µg/mL stood at 116%, the activity at 1.56 µg/mL is 136% and the activity at 3.13 µg/mL was 157%. The activity at 6.25 µg/mL is 188% and the activity at 12.5 µg/mL was 178%.
For the molecule `COc1cc(OC)c2c(c1)OCC(c1ccc(O)cc1O)C2` (stereo not drawn) [B-2], the activity at 0.39 µg/mL came to 106%, the activity at 0.78 µg/mL is 116%, the activity at 1.56 µg/mL amounted to 110% and the activity at 3.13 µg/mL stood at 146%. For the same molecule, the activity at 6.25 µg/mL came to 293% and the activity at 12.5 µg/mL was found to be 100%.
On to `COc1cc(OC)c2c(c1)OCC(c1ccc(OCC=C(C)C)cc1OCC=C(C)C)C2` (stereo not drawn) [B-3], for which the activity at 0.39 µg/mL was determined as 114%, the activity at 0.78 µg/mL came out at 111%, the activity at 1.56 µg/mL was 110% and the activity at 3.13 µg/mL was 162%. For the same molecule, the activity at 6.25 µg/mL was found to be 183% and the activity at 12.5 µg/mL turned out to be 204%.
With `COc1cc(OC)c2c(c1)OCC(c1ccc(O)c(CC=C(C)C)c1O)C2` (stereo not drawn) [B-4], the activity at 0.39 µg/mL was 110%, the activity at 0.78 µg/mL came out at 115%, the activity at 1.56 µg/mL stood at 125% and the activity at 3.13 µg/mL turned out to be 176%. Further, the activity at 6.25 µg/mL was 258% and the activity at 12.5 µg/mL came out at 44%.
For `COc1cc(OC)c2c(c1)OCC(c1ccc(O)cc1OCC=C(C)C)C2` (stereo not drawn) [B-5], the activity at 0.39 µg/mL came out at 100%, the activity at 0.78 µg/mL was found to be 115%, the activity at 1.56 µg/mL was found to be 165% and the activity at 3.13 µg/mL was found to be 245%. Moreover, the activity at 6.25 µg/mL was determined as 205% and the activity at 12.5 µg/mL stood at 31%.
Turning to `COc1cc(OC)c2c(c1)OCC(c1ccc(O[Si](C)(C)C(C)(C)C)cc1O[Si](C)(C)C(C)(C)C)C2` (stereo not drawn) [B-6], the activity at 0.39 µg/mL was 100%, the activity at 0.78 µg/mL was 103%, the activity at 1.56 µg/mL came out at 120% and the activity at 3.13 µg/mL was 144%. Moreover, the activity at 6.25 µg/mL was 173% and the activity at 12.5 µg/mL was 156%.
In the case of `COc1cc(O)c2c(c1)OCC(c1ccc(OCc3ccccc3)cc1OCc1ccccc1)C2` (stereo not drawn) [B-7], the activity at 0.39 µg/mL turned out to be 99%, the activity at 0.78 µg/mL was 100%, the activity at 1.56 µg/mL is 125% and the activity at 3.13 µg/mL came to 141%. Besides, the activity at 6.25 µg/mL was 132% and the activity at 12.5 µg/mL was found to be 67%.
As for `COc1ccc(C2COc3cc(OC)cc(OC)c3C2)c(OC)c1` (stereo not drawn) [B-8], the activity at 0.39 µg/mL is 94%, the activity at 0.78 µg/mL amounted to 91%, the activity at 1.56 µg/mL came out at 90% and the activity at 3.13 µg/mL worked out at 90%. Further, the activity at 6.25 µg/mL was 118% and the activity at 12.5 µg/mL amounted to 83%.
Take `COc1cc2c(c(OC)c1CC=C(C)C)CC(c1ccc(O)cc1O)CO2` (stereo not drawn) [B-9]: the activity at 0.39 µg/mL worked out at 110%, the activity at 0.78 µg/mL was 133%, the activity at 1.56 µg/mL came out at 150% and the activity at 3.13 µg/mL worked out at 165%. Moreover, the activity at 6.25 µg/mL turned out to be 110% and the activity at 12.5 µg/mL amounted to 25%.
As to `COc1cc2c(c(OC)c1C=CC(C)C)CC(c1ccc(O)cc1O)CO2` (stereo not drawn) [B-10], the activity at 0.39 µg/mL is 118%, the activity at 0.78 µg/mL was 145%, the activity at 1.56 µg/mL was 204% and the activity at 3.13 µg/mL amounted to 119%. In addition, the activity at 6.25 µg/mL worked out at 45% and the activity at 12.5 µg/mL was 23%.
As to `COc1cc2c(c(OC)c1CCC(C)C)CC(c1ccc(O)cc1O)CO2` (stereo not drawn) [B-11], the activity at 0.39 µg/mL worked out at 102%, the activity at 0.78 µg/mL is 129%, the activity at 1.56 µg/mL amounted to 125% and the activity at 3.13 µg/mL was 139%. The activity at 6.25 µg/mL amounted to 88% and the activity at 12.5 µg/mL came out at 32%.
As for `COc1cc2c(c(OC)c1CC=C(C)C)CC(c1ccc(O[Si](C)(C)C(C)(C)C)cc1O[Si](C)(C)C(C)(C)C)CO2` (stereo not drawn) [B-12], the activity at 1.56 µg/mL stood at 122%, the activity at 3.13 µg/mL was found to be 122%, the activity at 6.25 µg/mL turned out to be 129% and the activity at 12.5 µg/mL came out at 136%.
As to `COc1cc2c(c(OC)c1CC=C(C)C)CC(c1ccc(OCc3ccccc3)cc1OCc1ccccc1)CO2` (stereo not drawn) [B-13], the activity at 1.56 µg/mL turned out to be 121%, the activity at 3.13 µg/mL was 145%, the activity at 6.25 µg/mL is 152% and the activity at 12.5 µg/mL was determined as 162%.
